Assay results as given in ChEMBL document CHEMBL3886312, “Sepiapterin reductase inhibitors for the treatment of pain” (2015).

Tests used:
Sepiapterin reductase [1] = molecular target: T1, Sepiapterin reductase (Homo sapiens, UniProt P35270); assay: LC/MS assay: To screen for SPR inhibition, a biochemical assay based on LC/MS (and chromogenic) read-out has been developed. The LC/MS assay monitors the product formation (L-biopterin) and the chromogenic assay measures OD at 420 nm.N-methoxyacetyl serotonin was used as a reference compound (positive control). […] (2) Add 40 uL enzyme/assay buffer.
Sepiapterin reductase [2] = molecular target: T1, Sepiapterin reductase; assay: The LC/MS assay monitors the product formation (L-biopterin) and the chromogenic assay measures OD at 420 nm.N-methoxyacetyl serotonin was used as a reference compound (positive control). […] (2) Add 40 uL enzyme/assay buffer.

T1 sequence (P35270 whole entry): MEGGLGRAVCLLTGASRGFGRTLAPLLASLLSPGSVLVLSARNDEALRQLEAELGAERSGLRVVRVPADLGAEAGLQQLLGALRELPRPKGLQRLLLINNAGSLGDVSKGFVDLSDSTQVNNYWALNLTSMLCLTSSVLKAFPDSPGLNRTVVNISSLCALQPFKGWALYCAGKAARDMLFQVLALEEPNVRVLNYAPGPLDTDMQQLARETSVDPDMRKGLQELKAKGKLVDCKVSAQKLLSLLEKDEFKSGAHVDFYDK

Q: For `COCC(=O)NCCc1c[nH]c2ccc(NS(C)(=O)=O)cc12`, which IC50 (Sepiapterin reductase [1]) is on record?
A: 1000 nM

Q: And the IC50 (Sepiapterin reductase [2])?
A: 1100 nM
